US10308959B2, “Methods, systems, and compositions relating to MiRNA-146a” (Henry Ford Health System, priority 2013, dated 2019)

Test system: diabetic mice (db/db mice)
Experiment: Diabetic peripheral neuropathy in type II diabetic mice (db/db)
Format: in vivo, mouse
Source text: DRG neurons play an important role in sensory conduction. Diabetic peripheral neuropathy is characterized by the loss and/or degeneration of neurons and the slowing of nerve conduction velocities. Using a mouse model of type II diabetes which develops severe peripheral neuropathy, we measured miR-146a expression in DRG neurons. […] FIG. 5H is quantitative data of caspase 3 positive cells. FIGS. 5I and J are neurological function measured by motor nerve conduction velocity (MCV, FIG. 5I) and sensory nerve conduction velocity (“SCV”, FIG. 5J). Red, blue, and black lines represent non-diabetic mice, diabetic mice treated with saline, and diabetic mice treated with sildenafil, respectively. *P<0.01 versus the nondiabetic group. #P<0.05 versus the diabetic group treated with saline. n=10/group. […] Elevation of miR-146a in DRG neurons by sildenafil rescued diabetes-induced DRG neuron death and improved neurological outcomes (FIG. 5).

[1] = diabetic mice treated with sildenafil

## CCCc1nn(C)c2c(=O)[nH]c(-c3cc(S(=O)(=O)N4CCN(C)CC4)ccc3OCC)nc12 [sildenafil]
[1]
  diabetes-induced DRG neuron death (caspase 3 positive cells): rescued
  miR-146a in DRG neurons: Elevation
Diabetic mice treated with sildenafil vs saline
  neurological outcomes (MCV, SCV): improved
